This is an account of results in PMC10096175, “An In Vitro Antimicrobial, Anticancer and Antioxidant Activity of N–[(2–Arylmethylthio)phenylsulfonyl]cinnamamide Derivatives” (Molecules, 2023).

≈ marks a conversion by molar mass, not a printed value. Read-outs that look alike come from different tables or passages of the source.

For orientation: IC50 means the concentration needed to halve the response being measured. One may read the MIC as the lowest concentration found to suppress growth.

Data set [1] relates to mouse melanoma B16–F10 cell line. Further details: method as in PMID 21783370. Conditions: cited from earlier work.
Data set [2] concerns S. epidermidis ATCC 14990. Nature of the data set: MIC determination, reference strain (microdilution). It is filed as cell-based. To be noted: Staphylococcus epidermidis, ATCC14990; S. epidermidis ATCC 14990; Co-trimoxazole as sulfamethoxazole/trimethoprim; read-out: MIC.
Another data set deals with E. hirae ATCC 10541. The description is as above. It is filed as cell-based. To be noted: Enterococcus hirae, ATCC10541; E. hirae ATCC 10541; Co-trimoxazole as sulfamethoxazole/trimethoprim; read-out: MIC.
The next data set relates to C. diphtheriae. The description is as above. It is filed as cell-based. To be noted: Corynebacterium diphtheriae; C. diphtheriae; Co-trimoxazole as sulfamethoxazole/trimethoprim; read-out: MIC.
For another data set, the system named is HeLa cells. The data set is described as follows: MTT assay. It is filed as cell-based, human. To be noted: for IC50: HeLa, MTT, 24 h treatment.
The test system of data set [3] is clinical strains of Enterococcus sp. Nature of the data set: MIC on clinical Enterococcus strains. It is filed as cell-based. Conditions: Enterococcus sp. 3937152; read-out: MIC.
For another data set, the system named is HEK-293 cells. The data set is described as follows: MTT assay, noncancerous cells. The data set is classed as cell-based. Conditions: Homo sapiens, HEK293; HEK-293; MTT, 24 h treatment; read-out: IC50.
A further data set deals with C. albicans ATCC 10231. The data set is described as follows: MIC determination, reference fungal strain (microdilution). The data set is classed as cell-based. To be noted: Candida albicans, ATCC10231; C. albicans ATCC 10231; read-out: MIC.
Another data set has as its system S. aureus ATCC 6538. Nature of the data set: MIC determination, reference strain (microdilution). It is filed as cell-based. To be noted: Staphylococcus aureus, ATCC6538; S. aureus ATCC 6538; ± SD; Co-trimoxazole as sulfamethoxazole/trimethoprim; read-out: MIC. For orientation: Broth dilution looks for growth in wells or tubes with falling amounts of substance.
A short description of a further data set: ABTS assay. Conditions: ABTS radical scavenging; 10 min, 30 °C. As for the experimental part:
The ABTS assay was performed spectrophotometrically. […] ABTS solution with methanol/DMSO (9/1 v/v) was used as a control. After 10 min of incubation at 30 °C in the dark, the absorbance was analyzed at λ = 750 nm by a 96-well microplate reader (Epoch, BioTek System, Santa Clara, CA, USA). Ascorbic acid was used as a standard.
ABTS inhibition was calculated by the following equation:ABTS Inhibition (%) = [Acontrol − Asample)/Acontrol] × 100%
(§1) IC50 values of the samples were calculated using program GraFit v. 7.0 (Erithacus Software). The analysis was performed three times, with tree replications in each (n = 9). Statistical analysis was performed with one-way ANOVA with Tuckey’s post-hoc test.

The next data set relates to E. faecalis ATCC 51299. Nature of the data set: MIC determination, reference strain (microdilution). It is filed as cell-based. Conditions: Enterococcus faecalis, ATCC51299; E. faecalis ATCC 51299; Co-trimoxazole as sulfamethoxazole/trimethoprim; read-out: MIC.
The next data set can be described thus: in vitro. To be noted: sheep, defibrinated sheep blood diluted 1:9 v/v with PBS, pH 7.
The test system of another data set is E. coli ATCC 8739. Nature of the data set: MIC determination, reference strain (microdilution). To be noted: Escherichia coli, ATCC8739; E. coli ATCC 8739; Co-trimoxazole as sulfamethoxazole/trimethoprim; read-out: MIC. The data set is classed as cell-based.
The test system of data set [4] is cancer cells (HeLa, SKOV-3, MCF-7). Nature of the data set: MTT assay, summary statements on the cancer cells. Conditions: Homo sapiens, cell line not specified. The data set is classed as cell-based. A general note: Formazan colour is commonly taken as a measure of viable cells.
Another data set concerns SKOV-3 cells. The data set is described as follows: MTT assay. The data set is classed as cell-based, human.
A further data set relates to MCF-7 cells. Nature of the data set: MTT assay. The data set is classed as cell-based, human.
A further data set deals with B. subtilis ATCC 6633. Nature of the data set: MIC determination, reference strain (microdilution). It is filed as cell-based. Conditions: Bacillus subtilis, ATCC6633; B. subtilis ATCC 6633; Co-trimoxazole as sulfamethoxazole/trimethoprim; read-out: MIC.
Another data set in a line: DPPH assay. To be noted: DPPH radical scavenging; 40 min, room temperature. As for the experimental part:
The DPPH assay was performed spectrophotometrically. The amount of 30 µL of different concentrations of samples, dissolved in methanol/DMSO (9/1 v/v), was mixed with 170 µL of 0.06 mM DPPH methanolic solution and completed with methanol to a final volume of 300 µL. DPPH methanolic solution with methanol/DMSO (9/1 v/v) was used as a control. After 40 min of incubation at room temperature in the dark, the absorbance was analyzed at λ = 510 nm by a 96-well microplate reader (Epoch, BioTek System, Santa Clara, CA, USA). Ascorbic acid was used as a standard.
DPPH inhibition was calculated by the following equation:DPPH Inhibition (%) = [Acontrol − Asample)/Acontrol] × 100%
as §1
On the technique in general: DPPH is a stable violet radical that fades when it is reduced.

With `O=C(/C=C/c1ccc(Br)cc1)NS(=O)(=O)c1ccc(F)cc1` [(E)–3–(4–bromophenyl)–N–(4–fluorophenylsulfonyl)acrylamide], the IC50 in data set [1] is recorded as 1.2 µg/mL (≈ 3.12 µM).
Take `Cc1cc(S(=O)(=O)NC(=O)/C=C/c2ccc([N+](=O)[O-])cc2)c(SCc2cc3c(cc2Cl)OCO3)cc1Cl` [Compound 17d, (E)–N–{4–Chloro–2–[(6–chlorobenzo[d][1,3]dioxol–5–yl)methylthio]–5–methylphenylsulfonyl}–3–(4–nitrophenyl)acrylamide]: the MIC in data set [2] is 2 ± 0.76 µg/mL (≈ 3.44 µM); in the data set with E. hirae ATCC 10541, 8 ± 0.15 µg/mL (≈ 13.8 µM); in the data set on C. diphtheriae, 62.5 ± 0.29 µg/mL (≈ 107 µM); in [3] it was above 125 µg/mL; with C. albicans ATCC 10231, above 125 µg/mL; in the data set on S. aureus ATCC 6538, 4 ± 0.16 µg/mL (≈ 6.88 µM). Besides, the minimum inhibitory concentration (MIC) in the data set on E. faecalis ATCC 51299 was 8 ± 0.15 µg/mL (≈ 13.8 µM); with E. coli ATCC 8739, above 125 µg/mL; in the data set on B. subtilis ATCC 6633 it was 125 ± 0.29 µg/mL (≈ 215 µM). Besides, the IC50 is 9.99 ± 0.08 µg/mL (≈ 17.2 µM) in the data set with HeLa cells; below 10 µg/mL in the data set with HeLa cells (Homo sapiens, 24 h, read-out: IC50); 15.4 ± 0.69 µg/mL (≈ 26.4 µM) in the data set with HEK-293 cells; below 10 µg/mL in [4] (MTT); at most 20 µM in data set [4] (µg/mL bound converted); 15.3 ± 0.16 µg/mL (≈ 26.4 µM) in the data set on SKOV-3 cells (Homo sapiens, SK-OV-3, SKOV-3, MTT, 24 h treatment, read-out: IC50). The IC50 in the data set with MCF-7 cells (Homo sapiens, MCF7, MCF-7, MTT, 24 h treatment, read-out: IC50) was found to be 16.3 ± 0.27 µg/mL (≈ 28.1 µM). The “Selectivity index (SI)” value in the data set with HeLa cells (IC50 HEK-293 / IC50 HeLa) was found to be 1.5; in the data set on SKOV-3 cells (IC50 HEK-293 / IC50 SKOV-3) it was 1.0; in the data set on MCF-7 cells (IC50 HEK-293 / IC50 MCF-7), 0.9. For the same compound, the “IC50 ABTS” value in “ABTS assay” is on record as 419.18 ± 2.72 µg/mL (≈ 721 µM). In addition, the hemolysis at 24 h, 31.25 µg/mL in the data set “in vitro” was 12 to 20%. In addition, in the data set “DPPH assay”, the “IC50 DPPH” value is 574.41 ± 1.34 µg/mL (≈ 988 µM).
